In US8853248B2, “(1,2,3-triazolyl)sulfonyl derivatives” (priority 2012, dated 2014):
pIC50: −log10 of the molar value.

Key:
[1] = tested on: adjuvant-induced arthritis; type: in vivo, rat (male Lewis rats); conditions: 30 mg/kg daily by intubation, 7 treatment days; day 28 minus day 21; micronized compound; standard deviation in parentheses
Experimental: As mentioned earlier, the compounds of formula (1) and pharmaceutically acceptable salts of compounds of formula (1) are useful in the treatment or prevention of inflammations. For example, they can be used as anti-inflammatory agents in the treatment of inflammatory joint diseases, such as arthritis, and in other diseases where inflammation is the inherent cause.
The adjuvant was prepared by homogenizing 170 mg of heat-killed and dried mycobacterium tuberculosis (Difco) in 22.7 mL of ‘Incomplete Freund's Adjuvant’ (ICFA, Difco). Male Lewis rats with body weights of 130-150 g were injected i.d. at the base of the tail with 0.1 ml of adjuvant. The non-diseased animals received 0.1 mL of ICFA i.d. The animals were housed individually and received feed and water ad libitum. The thus-induced arthritis was allowed to develop without treatment during 21 days. On day 21 the body weight of each animal was determined. At the same time, the volumes of the two hind paws of each animal were measured by immersing the paws in an aqueous plethysmograph up to the height of the lateral malleolus. […] Paw volumes and body weight were recorded diurnally. At the end of the treatment period (day 28), body weights and volumes of the hind paws were again determined. The changes over the treatment period were calculated. […] Subsequently, the animals were sacrificed and the liver weights recorded. […]

ovine COX-1 = target: T1, ovine COX-1 (Ovis aries, UniProt P05979); assay: COX activity assay (Cayman colorimetric kit), COX-1; type: biochemical; conditions: at a level of 300 μM; purified enzyme, peroxidase activity read at 590 nm
T1 construct: purchased Cayman Chemicals
T1 sequence (P05979 25-600): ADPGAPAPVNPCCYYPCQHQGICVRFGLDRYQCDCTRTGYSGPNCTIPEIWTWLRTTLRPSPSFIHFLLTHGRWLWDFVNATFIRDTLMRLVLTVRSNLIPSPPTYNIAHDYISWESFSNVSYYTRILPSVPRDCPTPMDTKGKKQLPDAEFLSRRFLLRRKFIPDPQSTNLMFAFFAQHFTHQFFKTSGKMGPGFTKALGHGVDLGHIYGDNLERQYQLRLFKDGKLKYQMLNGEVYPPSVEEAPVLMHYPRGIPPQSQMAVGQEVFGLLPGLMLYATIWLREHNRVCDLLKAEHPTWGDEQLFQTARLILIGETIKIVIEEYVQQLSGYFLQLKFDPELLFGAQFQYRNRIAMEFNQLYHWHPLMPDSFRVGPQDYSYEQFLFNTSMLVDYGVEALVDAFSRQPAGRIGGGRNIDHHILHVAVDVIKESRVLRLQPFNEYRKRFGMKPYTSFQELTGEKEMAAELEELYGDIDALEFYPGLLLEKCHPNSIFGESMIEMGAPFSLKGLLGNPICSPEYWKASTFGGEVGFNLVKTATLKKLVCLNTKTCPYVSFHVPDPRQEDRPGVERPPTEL
Experimental: (§1) COX activity was measured using an assay kit obtained from Cayman Chemicals in accord with the instruction manual of the manufacturer “COX Activity Assay, Catalog No. 760151, Colorimetric Assay for the Determination of COX Activity.” The enzyme activity was determined by the peroxidase activity of cyclooxygenases on arachidonic acid and monitored colorimetrically at 590 nm by the appearance of oxidized N,N,N′,N′-tetramethyl-p-phenylenediamine. Both ovine COX-1 and human recombinant COX-2 were obtained from Cayman Chemicals.

human recombinant COX-2 = target: T2, human recombinant COX-2 (Homo sapiens, UniProt P35354); assay: COX activity assay (Cayman colorimetric kit), COX-2; type: biochemical; conditions: purified enzyme, peroxidase activity read at 590 nm
T2 construct: purchased Cayman Chemicals
T2 sequence (P35354 18-604): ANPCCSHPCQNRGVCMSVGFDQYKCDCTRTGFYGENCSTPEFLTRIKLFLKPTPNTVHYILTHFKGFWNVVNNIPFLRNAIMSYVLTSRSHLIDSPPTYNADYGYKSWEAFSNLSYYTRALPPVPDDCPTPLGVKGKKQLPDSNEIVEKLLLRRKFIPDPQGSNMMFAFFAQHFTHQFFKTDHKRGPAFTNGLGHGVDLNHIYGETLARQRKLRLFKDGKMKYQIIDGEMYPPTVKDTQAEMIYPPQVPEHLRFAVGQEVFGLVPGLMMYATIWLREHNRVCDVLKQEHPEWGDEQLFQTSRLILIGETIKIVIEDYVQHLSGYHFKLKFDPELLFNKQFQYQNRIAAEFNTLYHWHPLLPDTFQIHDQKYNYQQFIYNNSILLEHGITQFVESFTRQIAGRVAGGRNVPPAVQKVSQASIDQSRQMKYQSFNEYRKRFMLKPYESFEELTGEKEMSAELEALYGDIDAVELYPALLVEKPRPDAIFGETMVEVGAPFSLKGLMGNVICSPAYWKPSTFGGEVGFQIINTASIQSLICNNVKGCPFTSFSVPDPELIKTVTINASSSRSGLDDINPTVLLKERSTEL
Experimental: as §1

CNS(=O)(=O)c1nn[nH]c1-c1cc(C(C)(C)C)c(O)c(C(C)(C)C)c1 [Compound 1i, 5-(3,5-di-tert-butyl-4-hydroxy-phenyl)-N-methyl-1H-triazole-4-sulfonamide]
Volume change of left paw [1]: −0.73 (0.08) mL
Volume change of right paw [1]: −0.63 (0.11) mL
effect on COX-1 activity (ovine COX-1): no effect
pIC50 (human recombinant COX-2): 4.17
